# Laboratory results reported in publication PMC8333062, “Chemical tools for epichaperome-mediated interactome dysfunctions of the central nervous system” (Nature Communications, 2021).
# Values joined by “and” are separate entries in the source; they are usually repeats but may differ in a detail not shown here. Identical values can stand only once.
# Assays:
# [1] = PET biodistribution in human patients; assay type: in vivo; details: human, in vivo
# Text: To evaluate the brain permeability of PU-HZ151 into the human brain, we produced the [^124I]-labeled derivative and performed serial PET imaging studies of human patients (n = 3; NCT03371420), and derived time-activity (i.e. standard uptake values (SUV) versus time post-administration) curves for the brain and various other tissues (Fig. 2b). PET data obtained for [^124I]-labeled PU-H71 (NCT01269593 and ref. [39]) were used for comparison. […] The AUC values recorded for [^124I]-PU-HZ151 in the human brain post-single injection are at par with what was measured in the human muscle and lung, supportive of uptake of PU-HZ151 into the human brain (Fig. 2b). Magnetic resonance imaging (MRI), by offering structural and soft tissue resolution, confirmed the presence of PU-HZ151 in the brain tissue (Fig. 2d). […] The secondary outcome of the trial was to measure adverse events following administration of the probe. Safety of [^124I]-PU-HZ151 in human subjects was assessed by evaluation of the incidence, nature, and severity of adverse events and serious adverse events (Supplementary Note 2).
# [^124I]-PU-HZ151 and [^124I]-PU-H71 were synthesized in-house by the institutional cyclotron core facility at high specific activity. Analyses of the epichaperome by positron emission tomography (PET-CT) were performed as previously reported. In brief, research PET-CT was performed using an integrated PET-CT scanner (Discovery DSTE, GE Healthcare). CT scans for attenuation correction and anatomic coregistration were performed before tracer injection. Patients received 5 mCi of [^124I]-PU-HZ151 or [^124I]-PU-H71 by peripheral vein over 2 min. PET data were reconstructed using a standard ordered subset expected maximization iterative algorithm. Emission data were corrected for scatter, attenuation, and decay. PET scans were performed 0.5, 3, and 24 h after tracer administration. Numbers in the scale bar indicate upper and lower standardized uptake value (SUV) thresholds that define pixel intensity on PET images. SUV is a pixel value, derived from PET measurements of in vivo radioactivity, quantified as the fraction of the radioactive dose injected found in a cubic centimeter of measured tissue multiplied (ie, normalized) by patient body weight (grams). Maximum Intensity Projection (MIP) 3D images were constructed from the voxels with maximum intensity that fell in the way of parallel rays traced from the viewpoint to the plane of projection. At each pixel the highest data value encountered along the corresponding viewing ray was determined. MRI scans were obtained as part of routine clinical care using hardware and standard data acquisition and processing methods. MRI was obtained using a 1.5T magnet (Signa HDxt, GE Healthcare, Milwaukee, WI). […] Gadopentetate dimeglumine (Magnevist, HealthCare Pharmaceuticals Inc.) was injected though a peripheral angiocatheter at a standard dose (0.2 mL kg^−1 body weight, 40 mL, 2 cc s^−1). For precise localization of tracer uptake to specific neuroanatomical structures, PET brain images were fused to MRI brain images using the Integrated Registration application of the AW Suite software package (GE Healthcare, Milwaukee, Wisconsin, USA).
# [2] = system: GBM#7; test: PET of intracranial tumors; assay type: in vivo, mouse; details: microdose iv
# Description: (§1) To test if our probes can detect and differentiate in vivo the epichaperome-dependent tumors from those that are not, we next performed intracranial xenotransplantation of GSCs from epichaperome-high (GSC#8), -medium (GSC#7; GSC#19) and -negative (GSC#5) specimens. For comparison we used intracranially xenotransplanted MDA-MB-468 tumors (Fig. 7a).
# (§2) Orthotopic GBM xenografts in mice were established by injection of 5 × 10^5 cells in 2 μL PBS. For PET analyses, GSCs were injected into the striatum. Boreholes were made using a small hand drill. Mice were imaged with MRI (typically ~ 2–3 weeks after injection), and – if tumors were visible on MRI – they were imaged by micro-PET using the [^124I]-radiolabeled PU-HZ151. When mice started showing symptoms of progressing GBM, they received a microdose of [^124I]-PU-HZ151 and serial PET scans were performed at 20 mins, 6, 24, 48, 72, and 96 h post tracer administration using a dedicated small-animal PET scanner (Focus 120 microPET; Siemens Medical Solutions, USA, formerly Concorde Microsystems, Knoxville, TN). Mice were maintained under 2% isoflurane (Baxter Healthcare, Deerfield, IL) anesthesia in oxygen at 2 L min^−1 during the entire scanning period. To reduce the thyroid uptake of free iodide arising from metabolism of tracer, mice received 0.01% potassium iodide solution in their drinking water starting 48 h prior to tracer administration. For PET imaging, each mouse was administered [^124I]-PU-HZ151 (15 µCi g^−1, 3 µCi µL^−1 in saline, Hospira, 0.9% sodium chloride in water) via the tail vein or ip. Approximately 5 min prior to PET acquisition, mice were anesthetized by inhalation of a mixture of isoflurane (Baxter Healthcare, Deerfield, IL, USA; 2% isoflurane, 2 L min^−1 medical air) and positioned on the scanner bed. Anesthesia was maintained using a 1% isoflurane-O2 mixture. PET data for each mouse was recorded using static scans of 15 min and acquired at the indicated times post injection. Quantification and %ID g^−1 values were calculated by manually drawing regions of interests in three different frames and determining the average values using ASI Pro VM™ MicroPET Analysis software (Siemens Medical Solutions, Knoxville, TX).
# [3] = system: GBM#5; test: PET of intracranial tumors; assay type: in vivo, mouse; details: microdose iv
# Description: as §1, §2
# [4] = system: GBM#8; test: PET of intracranial tumors; assay type: in vivo, mouse; details: microdose iv
# Description: as §1, §2
# [5] = system: GBM#19; test: PET of intracranial tumors; assay type: in vivo, mouse; details: microdose iv
# Description: as §1, §2
# [6] = system: intracranial MDA-MB-468 tumors; test: PET of intracranial tumors; assay type: in vivo, mouse; design: radioactivity, Blood / radioactivity, Brain, normal / radioactivity, Tumor - intracranial: unit: %ID/g (percent injected dose per gram); details: for radioactivity, Blood / radioactivity, Brain, normal / radioactivity, Tumor - intracranial: mean n=5
# Description: We next investigated if the CNS-directed epichaperome probes detect epichaperome positivity and engage the target in brain tumors. MDA-MB-468 is a triple-negative breast cancer cell line, an aggressive breast cancer subtype with high propensity of metastasizing to the brain. We therefore initiated our studies with intracranial MDA-MB-468 tumors. We imaged the real-time whole-body distribution of [^124I]-labeled PU-HZ151 ([^124I]-PU-HZ151) between 1 h and 72 h to observe that PU-HZ151 was evenly distributed throughout the body with brain exposure equaling that of other tissues and non-metabolizing organs (see PET image at 1 h, Fig. 4a). A rapid clearance from HSP90 (present throughout the brain) but not epichaperome (present only in the tumor), provided unambiguous visualization and quantitation of epichaperome positivity through PET imaging. […] We also confirmed target positivity, and specific target and probe co-localization, through radiography and associated hematoxylin and eosin staining of brain tissue (Fig. 4c–e).
# as §2
# [7] = system: intracranial MDA-MB-468 tumors; test: PET of intracranial tumors; assay type: in vivo, mouse; design: unit: %ID/g (percent injected dose per gram); details: 96 h, mean n=5
# [8] = Plasma pharmacokinetics in human patients; assay type: in vivo; details: order Patient#1, #2, #3, Mean
# Description: For the PET study, two intravenous catheters (heparin-locked) were placed in the subject for radiopharmaceutical administration and for blood sampling. […] For [^124I]-PU-HZ151 injection and blood sampling, separate peripheral intravenous lines were placed. […] For quantification of radioprobe clearance and metabolism, plasma samples were radioassayed by well counter and radioHPLC using standard techniques. […] Well counting obtained a minimum of 10,000 counts per specimen correcting for background activity and radioactive decay from time of tracer injection. An I-124 standard was assayed on the well counter to obtain a calibration factor for converting sample scintillation count rates (in cpm) to millicurie (mCi) of activity. […] This value was multiplied by the patient body weight (g) to convert to standard uptake values (SUV) for comparison with tissue SUV values measured by PET, also calculated as the ID per mL tissue volume, normalized to patient body weight (g). Blood and plasma concentration data were separately plotted versus time.
# [9] = Adverse events in human patients (NCT03371420); assay type: in vivo; details: single microdose iv
# [10] = system: lung carcinoma; test: PET in a lung cancer patient; assay type: in vivo, human
smiles,measurement,setting,value
CC(C)(C)CNCCn1c(Sc2cc3c(cc2[124I])OCO3)nc2c(N)ncnc21 [[124I]-PU-HZ151],biological half-life in normal brain tissue,[1],less than 0.5 hours
same,AUC^tumor/blood,[2],893
same,AUC^tumor/blood,[3],143
same,AUC^tumor/blood,[4],80
same,AUC^tumor/blood,[5],444
same,"radioactivity, Blood",[6]; 1 h,1.8445
same,"radioactivity, Brain, normal",[6]; 1 h,0.4287
same,"radioactivity, Tumor - intracranial",[6]; 1 h,2.4287
same,"radioactivity, Blood",[6]; 2 h,0.7280
same,"radioactivity, Brain, normal",[6]; 2 h,0.0550
same,"radioactivity, Blood",[6]; 6 h,0.2100
same,"radioactivity, Brain, normal",[6]; 6 h,0.1400
same,"radioactivity, Tumor - intracranial",[6]; 6 h,0.6541
same,"radioactivity, Blood",[6]; 24 h,0.0110
same,"radioactivity, Brain, normal",[6]; 24 h,0.0010
same,"radioactivity, Tumor - intracranial",[6]; 24 h,0.1284
same,"radioactivity, Blood",[6]; 48 h,0.0060
same,"radioactivity, Brain, normal",[6]; 48 h,0.0000
same,"radioactivity, Tumor - intracranial",[6]; 48 h,0.0885
same,"radioactivity, Blood",[6]; 72 h,0.0040
same,"radioactivity, Brain, normal",[6]; 72 h,0.0000
same,"radioactivity, Tumor - intracranial",[6]; 72 h,0.0351
same,"radioactivity, Brain, normal",[6]; 96 h,0.0000
same,AUC^tumor/blood,"[6]; PET, microdose iv",1303
same,"radioactivity, Blood",[7],0.0050
same,2nd Component Half-time,[8],1.87 h and 2.97 h and 2.35 h
same,2nd Component Half-time,[8]; then text value,1.87 h and 2.97 h and 2.2 h and 2.35 h and 2.35 ± 0.563 h
same,area under the curve (AUC),[8]; plasma,0.0225 (%ID g-1)h and 0.0199 (%ID g-1)h and 0.0127 (%ID g-1)h and 0.0184 (%ID g-1)h
same,probe-related toxicity,[9],No radioiodinated probe-related toxicity was evident
same,"radioactivity, Brain-gray",[10]; 0.5 h,1.16 SUV
same,"radioactivity, Lung",[10]; 0.5 h,0.56 SUV
same,"radioactivity, Muscle",[10]; 0.5 h,0.72 SUV
same,"radioactivity, Tumor",[10]; 0.5 h,2.52 SUV
same,"radioactivity, Brain-gray",[10]; 3 h,0.41 SUV
same,"radioactivity, Lung",[10]; 3 h,0.29 SUV
same,"radioactivity, Muscle",[10]; 3 h,0.32 SUV
same,"radioactivity, Tumor",[10]; 3 h,2.1 SUV
same,"radioactivity, Brain-gray",[10]; 24 h,0.03 SUV
same,"radioactivity, Lung",[10]; 24 h,0.07 SUV
same,"radioactivity, Muscle",[10]; 24 h,0.09 SUV
same,"radioactivity, Tumor",[10]; 24 h,0.79 SUV
